Laboratory results: patent US20250002450A1, “CATIONIC STEROID COMPOUNDS, METHOD OF OBTAINING THEREOF, FORMULATIONS COMPRISING THEREOF AND THEIR USES” (UNIVERSIDADE DO PORTO, priority 2021, published 2025)

Columns and labels:
[1] = tested on: S. aureus 66/1 (MRSA); assay: Antibacterial MIC/MBC (broth microdilution); format: cell-based, Staphylococcus aureus; settings: Staphylococcus aureus
Text: (§1) Twelve reference bacterial strains and nine MDR clinically relevant bacterial strains were used in this study. Gram-negative bacteria comprised reference strains E. coli ATCC 25922, K. pneumoniae ATCC 13883, Salmonella enterica serovar Typhimurium CECT 443, P. aeruginosa ATCC 27853, A. baumannii ATCC 19606, C. jejuni ATCC 33560 (ATCC—American Type Culture Collection; CECT—Colección Espanola de Cultivos Tipo); clinical isolates E. coli SA/2, an extended-spectrum β-lactamase (ESBL)-producing strain and P. aeruginosa 33b, a pan-drug-resistant isolate; and animal isolates C. jejuni P5/4, a ciprofloxacin-resistant strain, C. jejuni 4432, C. jejuni 4433, C. jejuni 4448, and E. coli 2252, a COL-resistant strain [42]. Gram-positive strains included S. aureus ATCC 29213, E. faecalis ATCC 29212, S. pyogenes ATCC 19615, and environmental isolates methicillin-resistant S. aureus (MRSA) 66/1 [43], and VAN-resistant enterococci (VRE) E. faecalis B3/101 [44]. Gram-negative fish pathogens Yersinia ruckeri ATCC 29473, Listonella anguillarum ATCC 1924, and Tenacibaculum maritimum ATCC 43397 were also included.
(§2) Strains were kept in Trypto-Casein Soy agar (TSA—Biokar Diagnostics, Allone, Beauvais, France) slants and, before each assay, were sub-cultured in Mueller-Hinton agar (MHA—Biokar Diagnostics, Allone, Beauvais, France). Y. ruckeri ATCC 29473 and L. anguillarum ATCC 1924 were kept in Nutrient Agar (Condalab, Madrid, Spain) and T. maritimum ATCC 43397 was kept in TMM agar (Condalab, Madrid, Spain), and were sub-cultured in the respective culture media before each assay. For S. pyogenes ATCC 19615, CAMHB was supplemented with 3.75% lysed horse blood (LBH—Oxoid, Basingstoke, England), whereas for C. jejuni it was supplemented with 2.5% LHB. Colony-forming unit counts of the inoculum were conducted to determine the initial inoculum size (which should be approximately 5×10^5 CFU/mL). Sterility and growth controls were included in each assay. The 96-well U-shaped untreated polystyrene microtiter plates were incubated for 20 h at 37 degrees C. (42 degrees C. for C. jejuni, in a microaerophilic atmosphere) and the minimal inhibitory concentration (MIC) was determined as the lowest concentration of compound that prevented visible growth. The minimal bactericidal concentration (MBC) was determined by spreading 100 μL of the content of the wells with no visible growth on MH plates. The MBC was determined as the lowest concentration of compound that killed 99.9% of the initial inoculum after overnight incubation at 37 degrees C. Two independent assays were performed for reference and MDR strains.
(§3) An initial screening of the antibacterial activity of the compounds was performed by the Kirby-Bauer disk diffusion method, as recommended by the Clinical and Laboratory Standards Institute (CLSI). Briefly, sterile 6 mm blank paper disks (Oxoid, Basingstoke, England) impregnated with 15 μg of each compound were placed on inoculated MH agar plates. A blank disk with dimethylsulfoxide (DMSO) was used as a negative control. MH inoculated plates were incubated for 18-20 h at 37 degrees C. At the end of incubation, the inhibition halos where measured. The MIC was used to determine the antibacterial activity of each compound, in accordance with the recommendations of the CLSI. Two-fold serial dilutions of the compounds were prepared in Mueller-Hinton Broth 2 (MHB2—Sigma-Aldrich, St. Louis, MO, USA) within the concentration range of 0.062-64 μg/mL. CTX ranging between 0.031-16 μg/mL was used as a control. Sterility and growth controls were included in each assay. Purity checks and colony counts of the inoculum suspensions were also performed in order to ensure that the final inoculum density closely approximates the intended number (5×10^5 CFU/mL). The MIC was determined as the lowest concentration of compound that inhibited growth of the bacteria. The MBC was assessed by spreading 10 μL of culture collected from wells showing no visible growth on MH agar plates. […]

[2] = tested on: Escherichia coli ATCC 25922; assay: Antibacterial MIC/MBC (broth microdilution); format: cell-based; settings: ATCC25922, Escherichia coli ATCC 25922
Text: as §1, §2, §3

[3] = tested on: Campylobacter jejuni ATCC 33560; assay: Antibacterial MIC/MBC (broth microdilution); format: cell-based; settings: ATCC33560, Campylobacter jejuni ATCC 33560
Text: as §1, §2, §3

[4] = tested on: Acinetobacter baumannii ATCC 19606; assay: Antibacterial MIC/MBC (broth microdilution); format: cell-based; settings: ATCC19606, Acinetobacter baumannii ATCC 19606
Text: as §1, §2, §3

[5] = tested on: Pseudomonas aeruginosa ATCC 27853; assay: Antibacterial MIC/MBC (broth microdilution); format: cell-based; settings: ATCC27853, Pseudomonas aeruginosa ATCC 27853
Text: as §1, §2, §3

[6] = tested on: Enterococcuss faecalis ATCC 29212; assay: Antibacterial MIC/MBC (broth microdilution); format: cell-based, Enterococcus faecalis; settings: Enterococcus faecalis, ATCC29212, Enterococcuss faecalis ATCC 29212
Text: as §1, §2, §3

[7] = tested on: E. faecalis B3/101 (VRE); assay: Antibacterial MIC/MBC (broth microdilution); format: cell-based, Enterococcus faecalis; settings: Enterococcus faecalis, E. faecalis B3/101 (VRE)
Text: as §1, §2, §3

[8] = tested on: C. jejuni 4432; assay: Antibacterial MIC/MBC (broth microdilution); format: cell-based, Campylobacter jejuni; settings: Campylobacter jejuni
Text: as §1, §2, §3

[9] = tested on: C. jejuni P5/4; assay: Antibacterial MIC/MBC (broth microdilution); format: cell-based, Campylobacter jejuni; settings: Campylobacter jejuni
Text: as §1, §2, §3

[10] = tested on: C. jejuni 4433; assay: Antibacterial MIC/MBC (broth microdilution); format: cell-based, Campylobacter jejuni; settings: Campylobacter jejuni
Text: as §1, §2, §3

[11] = tested on: C. jejuni 4448; assay: Antibacterial MIC/MBC (broth microdilution); format: cell-based, Campylobacter jejuni; settings: Campylobacter jejuni
Text: as §1, §2, §3

[12] = tested on: Tenacibaculum maritimum ATCC 43397; assay: Antibacterial disk diffusion; format: cell-based; settings: Tenacibaculum maritimum ATCC 43397, footnote *
Text: as §1, §2, §3

[13] = tested on: E. coli 2252 (COL-resistant); assay: Antibacterial MIC/MBC (broth microdilution); format: cell-based, Escherichia coli; settings: Escherichia coli, E. coli 2252 (COL-resistant)
Text: as §1, §2, §3

[14] = tested on: E. coli SA/2 (ESBL); assay: Antibacterial MIC/MBC (broth microdilution); format: cell-based, Escherichia coli; settings: Escherichia coli
Text: as §1, §2, §3

[15] = tested on: Streptococcuss pyogenes ATCC 19615; assay: Antibacterial MIC/MBC (broth microdilution); format: cell-based, Streptococcus pyogenes; settings: Streptococcus pyogenes, ATCC19615, Streptococcuss pyogenes ATCC 19615
Text: as §1, §2, §3

**Q.** C[C@H](CCC(=O)NCCNc1ccccc1)[C@H]1CC[C@H]2[C@@H]3CC[C@@H]4C[C@H](O)CC[C@]4(C)[C@H]3C[C@H](O)[C@]12C [Compound 8, (R)-4-((3R,5R,8R,9S,10S,12S,13R,14S,17R)-3,12-dihydroxy-10,13-dimethylhexadecahydro-1H-cyclopenta[a]phenanthren-17-yl)-N-(2-(phenylamino)ethyl)pentanamide] was tested. Which MBC ([1]; read-out: MBC) did it give?
**A.** Its MBC is > 64 µg/mL.

**Q.** And the MIC ([1]; read-out: MIC)?
**A.** Its MIC is > 64 µg/mL.

**Q.** What about the MBC ([2]; read-out: MBC) of the same compound?
**A.** The MBC was > 64 µg/mL.

**Q.** And the MIC ([2]; read-out: MIC)?
**A.** Its MIC is > 64 µg/mL.

**Q.** What about the MBC ([3]; read-out: MBC) of the same compound?
**A.** The MBC was > 64 µg/mL.

**Q.** And the MIC ([3]; read-out: MIC)?
**A.** Its MIC is > 64 µg/mL.

**Q.** What about the MBC ([4]; read-out: MBC) of the same compound?
**A.** Its MBC is > 64 µg/mL.

**Q.** And the MIC ([4]; read-out: MIC)?
**A.** Its MIC is > 64 µg/mL.

**Q.** What about the MBC ([5]; read-out: MBC) of the same compound?
**A.** The MBC was > 64 µg/mL.

**Q.** And the MIC ([5]; read-out: MIC)?
**A.** Its MIC is > 64 µg/mL.

**Q.** What about the MBC ([6]; read-out: MBC) of the same compound?
**A.** Its MBC is > 64 µg/mL.

**Q.** What about the MIC ([6]; read-out: MIC) of the same compound?
**A.** Its MIC is > 64 µg/mL.

**Q.** And the MBC ([7]; read-out: MBC)?
**A.** Its MBC is > 64 µg/mL.

**Q.** And the MIC ([7]; read-out: MIC)?
**A.** Its MIC is > 64 µg/mL.

**Q.** What about the MBC ([8]; read-out: MBC) of the same compound?
**A.** The MBC was > 64 µg/mL.

**Q.** What about the MIC ([8]; read-out: MIC) of the same compound?
**A.** Its MIC is > 64 µg/mL.

**Q.** And the MBC ([9]; read-out: MBC)?
**A.** Its MBC is > 64 µg/mL.

**Q.** And the MIC ([9]; read-out: MIC)?
**A.** The MIC was > 64 µg/mL.

**Q.** What about the MBC ([10]; read-out: MBC) of the same compound?
**A.** The MBC was > 64 µg/mL.

**Q.** What about the MIC ([10]; read-out: MIC) of the same compound?
**A.** Its MIC is > 64 µg/mL.

**Q.** And the MBC ([11]; read-out: MBC)?
**A.** The MBC was > 64 µg/mL.

**Q.** What about the MIC ([11]; read-out: MIC) of the same compound?
**A.** The MIC was > 64 µg/mL.

**Q.** What about the “Inhibition zone diameter (disk diffusion)” value [12] of the same compound?
**A.** The value was 12 mm.

**Q.** What about the MBC ([13]; read-out: MBC) of the same compound?
**A.** The MBC was > 64 µg/mL.

**Q.** And the MIC ([13]; read-out: MIC)?
**A.** The MIC was > 64 µg/mL.

**Q.** What about the MBC [14] of the same compound?
**A.** Its MBC is > 64 µg/mL.

**Q.** What about the MIC [14] of the same compound?
**A.** Its MIC is > 64 µg/mL.

**Q.** What about the MBC ([15]; read-out: MBC) of the same compound?
**A.** The MBC was > 64 µg/mL.

**Q.** And the MIC ([15]; read-out: MIC)?
**A.** Its MIC is > 64 µg/mL.
